Like-named read-outs stand apart in the source and are kept apart here.
Assays:
[1] = tested on: EAE in mice; settings: cited from earlier work
[2] = tested on: DSS-induced colitis in 129X1/SvJ male mice; test: Treatment at the first signs of DSS-induced colitis in 129X1/SvJ mice; type: in vivo, mouse
Description: The 129×1/SvJ strain is genetically similar to the 129/Ola strain and to the 129/SvPas strain, which is less susceptible to DSS-induced colitis than C3H/HeJ.

[3] = tested on: B6×129-IL-10−/− mice; settings: for Serum Calcium B6x129-IL-10−/− female (mg/dL): analyzed when mice lost 15% of body weight; for Serum Calcium B6x129-IL-10−/− male (mg/dL): analyzed four weeks later
Protocol: The calcitriol feeding was resumed at a lower dose (20 ng/d) at age 16 weeks. […] The calcitriol feeding was resumed at a lower dose (10 ng/d) at age 18 weeks.
Four weeks later, the serum calcium levels were measured (Table 10).

[4] = tested on: 129-IL-10−/− mice; test: Spontaneous colitis in strain 129-IL-10-deficient mice; type: in vivo, mouse
Description: This example describes the spontaneous colitis that develops spontaneously in strain 129-IL-10^−/− mice with and without administration of calcitriol. It has been reported that mice made genetically deficient in IL-10 spontaneously develop chronic enterocolitis (Kuhn et al., Cell, 75:263-274, 1993) if resident enteric bacteria is present (Sellon et al., Infect. Immunity, 66:5224-5231, 1998). The effect of calcitriol on spontaneous colitis in 129-IL-10^−/− mice is examined. […] The mice were age 7 weeks when they were exposed to soiled bedding from mice housed under conventional conditions. This was done to provide the enteric bacteria for development of colitis.

[5] = tested on: Lyme arthritis in mice; settings: calcitriol administered to mice; cited from earlier work
[6] = tested on: collagen induced arthritis in mice; settings: calcitriol administered to mice; cited from earlier work
[7] = tested on: C3H/HeJ male mice; test: Serum calcium after calcitriol feeding, C3H/HeJ male mice; type: in vivo, mouse
Protocol: In order to determine serum calcium, blood was collected, allowed to clot, and centrifuged (5,000×g for 10 minutes) at 6° C. The serum was decanted and stored frozen at −20° C. The samples, standards, and buffer blanks (2 μL each) were aliquoted into duplicate wells of a 96-well plate. Calcium reagent working solution (0.25 mL), prepared according to the manufacturer's directions (Sigma Diagnostics, St. Louis, Mo.), was added to each well, and the absorbance at 570 nm was measured.

[8] = tested on: DS-induced colitis in C3H/HeJ male mice; test: Calcitriol prevention of DS-induced colitis; type: in vivo, mouse
Protocol: Fecal hemoglobin was analyzed in the mice to determine bleeding from a breached intestinal barrier. […] Co., Needham Heights, Mass.), the supernatants were decanted into fresh tubes and stored frozen at -20° C. Hemoglobin in the supernatants was analyzed by a method adapted from Saitoh et al., Digestion, 56:67-75, 1995, and Liem et al., Anal. Biochem., 98:388-393, 1979, with rat hemoglobin as standard (Sigma-Aldrich). The supernatants were diluted 1:25 in TBS. […] The reaction was stopped with 100 μL of 2 M phosphoric acid, and the absorbance at 450 nm was measured with an MRX Revelation Microplate Reader (DYNEX Technologies). […] The mice were euthanized with an i.p. injection of pentobarbital. […] The fixed tissue was embedded in paraffin, sectioned at 6 μm, stained with hematoxylin and eosin, and examined by light microscopy. Scoring was conducted by a veterinary pathologist in blinded fashion. […] Clin. Invest., 98:1010-1020, 1996. The scores were summed to provide a total colitis score for each mouse. […] In particular, age-matched C3H/HeJ male mice were fed a synthetic diet (see Example 6) with or without calcitriol or prednisolone for one week. […] The mice were weighed every 3-4 days thereafter. […] Serum and colon tissue were collected on day 28. Most assays were performed as described in Example 6, and the terminal serum calcium assay was performed as described below. […] The serum was decanted and stored frozen at -20° C. The samples, standards, and buffer blanks (2 μL each) were aliquoted into duplicate wells of a 96-well plate. Calcium reagent working solution (0.25 mL), prepared according to the manufacturer's directions (Sigma Diagnostics, St. Louis, Mo.), was added to each well, and the absorbance at 570 nm was measured.

[9] = given before EAE induction or at stage 1 EAE
[10] = 50 ng/d from day 4 of 1% DSS, terminated 21 days later
[11] = female, dose gradually reduced, age 24 weeks
[12] = female, dose gradually reduced, terminated at age 24 weeks
[13] = male, 50 ng/d, terminated at age 19 weeks

SMILES: C=C1/C(=C\C=C2/CCC[C@]3(C)[C@@H]([C@H](C)CCCC(C)(C)O)CC[C@@H]23)C[C@@H](O)C[C@@H]1O [Calcitriol, 1,25 dihydroxyvitamin D3]
- Disease induction for EAE ([1]; calcitriol administered to mice): blocked disease induction
- Clonal expansion of Th1 cells producing IFN-γ and TNF-α [1, 9]: arrested the clonal expansion of Th1 cells
- Transcript accumulation for TGF-β1 and IL-4 in central nervous system and lymph nodes [1, 9]: stimulated an increase in transcript accumulation
- Colon Histopathology, Distal colon ([2]; 50 ng/d from day 4 of 1% DSS): 0.6 ± 0.9
- Colon Histopathology, Middle colon ([2]; 50 ng/d from day 4 of 1% DSS): 0 ± 0
- Colon Histopathology, Rectum + anus ([2]; 50 ng/d from day 4 of 1% DSS): 0.2 ± 0.4
- Colon histopathology, Proximal colon ([2]; 50 ng/d from day 4 of 1% DSS): 0.4 ± 0.8
- Colon histopathology, Sum ([2]; 50 ng/d from day 4 of 1% DSS): 1.2 ± 1.8
- Peak fecal hemoglobin ([2]; 50 ng/d from day 4 of 1% DSS, 1 cycle, terminated 21 days later): 1.3 ± 1.2 mg/g
- Terminal Serum Ca [2, 10]: 9.7 ± 3.2 mg/dL
- Terminal weight [2, 10]: 26.4 ± 3.3 g
- Colon histopathology compared to the mock-treated and prednisolone-treated mice ([2]; three weeks later): significant reduction in colon histopathology
- Effect on spontaneous colitis ([3]; 50 ng/d, colitis severity scores vs mock-treated not significantly different): did not inhibit spontaneous colitis
- Serum Calcium B6x129-IL-10−/− female (mg/dL) ([3]; female, 10 ng/d): 12.5 ± 1.5 mg/dL
- Serum Calcium B6x129-IL-10−/− female (mg/dL) ([3]; female, 20 ng/d): 13.0 ± 3.0 mg/dL
- Serum Calcium B6x129-IL-10−/− female (mg/dL) ([3]; female, 50 ng/d): 12.9 ± 2.4 mg/dL
- Peak fecal hemoglobin ([3]; female, calcitriol from age 7 weeks, dose gradually reduced, terminated at age 24 weeks): 0 ± 0 mg/g
- Colon Histopathology, Distal colon [3, 11]: 3.3 ± 0.5
- Colon Histopathology, Middle colon [3, 11]: 3.3 ± 0.5
- Colon Histopathology, Rectum + anus [3, 11]: 2.8 ± 1.9
- Colon histopathology, Proximal colon [3, 11]: 3.9 ± 0.3
- Colon histopathology, Sum [3, 11]: 13.1 ± 2.7
- Terminal Serum Ca [3, 12]: 12.5 ± 1.5 mg/dL
- Terminal weight [3, 12]: 19.5 ± 1.5 g
- Weight lost ([3]; female, feeding resumed at 20 ng/d at age 16 weeks): 15%
- Serum Calcium B6x129-IL-10−/− male (mg/dL) ([3]; male, 10 ng/d): 15.8 ± 2.1 mg/dL
- Serum Calcium B6x129-IL-10−/− male (mg/dL) ([3]; male, 20 ng/d): 14.4 ± 1.0 mg/dL
- Peak fecal hemoglobin ([3]; male, 50 ng/d from age 7 weeks, terminated at age 19 weeks): 0 ± 0 mg/g
- Colon Histopathology, Distal colon ([3]; male, 50 ng/d, age 19 weeks): 3.0 ± 0.0
- Colon Histopathology, Middle colon ([3]; male, 50 ng/d, age 19 weeks): 1.7 ± 1.2
- Colon Histopathology, Rectum + anus ([3]; male, 50 ng/d, age 19 weeks): 2.7 ± 0.6
- Colon histopathology, Proximal colon ([3]; male, 50 ng/d, age 19 weeks): 3.7 ± 0.6
- Colon histopathology, Sum ([3]; male, 50 ng/d, age 19 weeks): 11.1 ± 1.0
- Serum Calcium B6x129-IL-10−/− male (mg/dL) ([3]; male, 50 ng/d): 16.0 ± 3.5 mg/dL
- Terminal Serum Ca [3, 13]: 15.6 ± 2.5 mg/dL
- Terminal weight [3, 13]: 19.7 ± 0.9 g
- Mortality of male mice ([3]; male, 100 ng/d from age 7 weeks): died abruptly at age 15 weeks
- Hypercalcemia ([3]; male, graded (very low) doses from age 7 weeks, four weeks): severe hypercalcemia
- Colon Histopathology, Distal colon ([4]; 10 ng/day): 4 ± 0
- Colon histopathology, Medial colon ([4]; 10 ng/day): 4 ± 0
- Colon histopathology, Proximal colon ([4]; 10 ng/day): 4 ± 0
- Colon histopathology, Rectum ([4]; 10 ng/day): 4 ± 0
- Colon histopathology, Sum ([4]; 10 ng/day): 16 ± 0
- Peak hemoglobin in stool ([4]; 10 ng/day in synthetic diet): 0 ± 0
- Terminal serum calcium ([4]; 10 ng/day in synthetic diet): 12.5 ± 1.5 mg/dL
- Terminal weight ([4]; 10 ng/day in synthetic diet): 19.5 ± 1.5 g
- Effect on spontaneous colitis ([4]; 129-IL-10−/− mice): did not prevent spontaneous colitis
- Hypercalcemia ([4]; 129-IL-10−/− mice): developed hypercalcemia
- Disease induction for Lyme arthritis [5]: blocked disease induction
- Disease induction for collagen induced arthritis [6]: blocked disease induction
- Serum Calcium C3H/HeJ male ([7]; 10 ng/d for two weeks): 10.5 ± 2.1 mg/dL
- Serum Calcium C3H/HeJ male ([7]; 20 ng/d for two weeks): 10.1 ± 2.7 mg/dL
- Serum Calcium C3H/HeJ male ([7]; 50 ng/d for two weeks): 9.9 ± 0.6 mg/dL
- Serum Calcium C3H/HeJ male ([7]; 100 ng/d for two weeks): 10.1 ± 1.8 mg/dL
- Tolerability of the calcitriol doses ([7]; mouse, in vivo): well tolerated
- Peak Hg in Stool ([8]; 50 ng/day in diet from day −7, 1% DS days 0 to 5): 4.3 ± 4.4 mg/g
- Effect of pre-treatment on severity of DS-induced IBD ([8]; 50 ng/day pre-treatment): reduced the severity of DS-induced IBD
- Colon Histopathology, Distal colon ([8]; 50 ng/day, 1% DS, score 0 to 4): 0.6 ± 0.9
- Colon histopathology, Medial colon ([8]; 50 ng/day, 1% DS, score 0 to 4): 0.4 ± 0.9
- Colon histopathology, Proximal colon ([8]; 50 ng/day, 1% DS, score 0 to 4): 0.4 ± 0.5
- Colon histopathology, Rectum ([8]; 50 ng/day, 1% DS, score 0 to 4): 1.2 ± 1.1
- Colon histopathology, Sum ([8]; 50 ng/day, 1% DS, total score 0 to 16): 2.6 ± 1.9
- Peak Hg in the stool, lower than that in the prednisolone-treated group ([8]; calcitriol 50 ng/day vs prednisolone 50 ng/day): 65%
- Peak Hg in the stool, lower than that in the untreated group ([8]; calcitriol 50 ng/day vs untreated DS group): 37%
- Total colon histopathology score, lower than the score of the untreated group B ([8]; calcitriol group C vs group B): 61%
- Total colon histopathology score, lower than the score of the prednisolone-treated group D ([8]; calcitriol group C vs group D): 51%

From patent US6989377B2, “Treating vitamin D responsive diseases” (priority 1999, dated 2006)
